Assay: xn = mol fraction of the nth substance listed
Conditions: 101 kPa, Liquid, Linear variable-path acoustic interferometer

C=CC(=O)OC [methyl propenoate] + CCCCCCCCCCO
speed of sound [m/s]
Conditions	288.15 K	293.15 K	298.15 K	303.15 K	308.15 K	313.15 K	318.15 K
x1 = 0.0762	1388.2	1370.2	1352.1	1333.5	1318.1	1299.5	1284
x1 = 0.1523	1366.7	1348.2	1330.6	1312.1	1295.8	1276.3	1259.4
x1 = 0.2225	1346.9	1328.3	1310.1	1291.2	1275.1	1255.2	1238.1
x1 = 0.3073	1324.4	1304.9	1286.5	1268.1	1251.5	1231.5	1214.4
x1 = 0.3848	1304.7	1285.2	1267	1248.2	1231.2	1211.3	1194.3
x1 = 0.4622	1286.4	1267	1248.9	1230	1212.8	1193.1	1175.6
x1 = 0.5356	1270.8	1251.3	1233	1214.6	1197	1177.4	1160
x1 = 0.6092	1257.7	1238.3	1219.8	1201.2	1183	1163.6	1145.6
x1 = 0.6768	1247.2	1227.9	1209.4	1190.4	1171.8	1152.1	1133.7
x1 = 0.7443	1238.8	1219.3	1200.6	1181.3	1161.9	1141.8	1123.2
x1 = 0.8089	1233.4	1213.4	1193.9	1174.3	1154.1	1134	1114.4
x1 = 0.8736	1229.8	1209.1	1189.2	1169.1	1147.8	1127.2	1106.9
x1 = 0.9412	1227.4	1206.1	1185.6	1164.6	1142.5	1121.4	1100.4
x1 = 1	1226.6	1204.6	1183.6	1162.2	1139.1	1117.8	1095.7

C=CC(=O)OC [methyl propenoate] + CCCCCCCCO
speed of sound [m/s]
Conditions	288.15 K	293.15 K	298.15 K	303.15 K	308.15 K	313.15 K	318.15 K
x1 = 0.077	1371.5	1352.2	1331.5	1310.8	1292.2	1274.2	1256.8
x1 = 0.1554	1352.2	1331.8	1311.5	1290.9	1271.8	1253.4	1235.1
x1 = 0.2304	1333.7	1313.6	1293.4	1273.1	1253.6	1234.9	1216.4
x1 = 0.3053	1316.3	1296.3	1276	1255.8	1236	1217.5	1198.9
x1 = 0.383	1299.9	1280	1259.7	1239.6	1219.7	1200.9	1182.4
x1 = 0.4603	1285	1265.1	1244.7	1224.5	1204.5	1185.9	1167.5
x1 = 0.5321	1272.6	1252.5	1232.1	1212.1	1192.1	1173.4	1154.8
x1 = 0.6038	1262.4	1242	1221.6	1201.3	1181.1	1162.1	1143.1
x1 = 0.6724	1253.7	1233.3	1212.9	1192.3	1171.7	1152.5	1132.8
x1 = 0.741	1246.5	1225.8	1205.4	1184.7	1163.6	1143.8	1123.6
x1 = 0.8052	1241.4	1220.1	1199.4	1178.5	1156.7	1136.5	1115.7
x1 = 0.8698	1236.3	1214.7	1193.7	1172.5	1150.2	1129.6	1108.3
x1 = 0.935	1231.8	1209.6	1188.3	1166.8	1144.2	1123.1	1101.5
x1 = 1	1226.6	1204.6	1183.6	1162.2	1139.1	1117.8	1095.7

Source: the NIST ThermoML archive (doi:10.1016/j.jct.2012.11.027)
